Assay results reported in patent US7641919B2, “Anti-bacterial plant compositions” (priority 2001, dated 2010).

Key:
M. smegmatis 607 (ATCC) = experiment: agar-disk diffusion assay, zone of inhibition; assay type: cell-based, Mycobacterium smegmatis; conditions: HPLC fractions of methylene chloride extract; 6 mm disc; control 10 micrograms streptomycin
[1] = test system: M. tuberculosis 27294 (a streptomycin sensitive strain, ATCC); experiment: BACTEC-460 growth inhibition (growth index, 14CO2); assay type: cell-based, Mycobacterium tuberculosis; conditions: positive control, 50 μg/ml
E-Coli 25922 = experiment: zone of inhibition against E. coli; assay type: cell-based, Escherichia coli; conditions: HPLC fractions of methylene chloride extract; 6 mm disc; control 10 micrograms streptomycin
Method: An HPLC separation and isolation of an active fraction was attempted. High Pressure Liquid Chromatography (HPLC) was performed using a Discovery RP-Amide C-16 Column, 15 cm long, 4.6 mm wide (Supelco, Bellefort, Pa.). An isocratic, i.e. steady concentration, of a polar solvent phase was used. The solvent phase consisted of dilute phosphoric acid in methanol. The flow rate was 2 ml/minute. Therefore exit is dependent on MW (larger MW exists later) and polarity. The more polar the compound, the quicker it solubilizes into the solvent, but it is retained longer in the static phase of the column which holds back the more polar compounds. The fractions were monitored by UV, at 254 nm wave-length. One to three fraction per plant extract were collected at the indicated times. […] See, for example, FIGS. 1-3. Based on consideration of the relative polarity and molecular weights of the compounds identified for the respective plants in the total methylene chloride extract, the compounds in the right-most column of table 5 “Additional Compounds” lists compounds which are not observed in the active fraction of the extract of the respective plants, but which are likely to be present in smaller quantities (“trace amounts”) in the active fraction and which might contribute to the anti-mycobacterial activity.

`[H]/N=C(/N)N[C@H]1[C@H](O)[C@@H](O)[C@H](O[C@@H]2O[C@@H](C)[C@](O)(C=O)[C@H]2O[C@@H]2O[C@@H](CO)[C@H](O)[C@@H](O)[C@@H]2NC)[C@@H](N/C(N)=N\[H])[C@@H]1O` [Streptomycin] was tested, and the “M. Smegmatis ATCC 607 ZOI (mm)” value (M. smegmatis 607 (ATCC)) was 17 mm, the “Δ G1 (growth index change)” value [1] was “Positive control Streptomycin (50 μg/ml) resulting in a Δ G1 of −2.8” and the “E-Coli 25922 ZOI (mm)” value (E-Coli 25922) was 14 mm.
